The values that follow come from patent publication US4814485A, “4-aminobutanoic acid derivatives, process of preparation and use thereof” (Sanofi, priority 1985, dated 1989).

pIC50: −log10 of the molar value.

This test deals with T1, human plasma renin (Homo sapiens, UniProt P00797).
T1 construct: human plasma renin activity; from tissue; host or cells: human plasma
T1 sequence (P00797 67-406): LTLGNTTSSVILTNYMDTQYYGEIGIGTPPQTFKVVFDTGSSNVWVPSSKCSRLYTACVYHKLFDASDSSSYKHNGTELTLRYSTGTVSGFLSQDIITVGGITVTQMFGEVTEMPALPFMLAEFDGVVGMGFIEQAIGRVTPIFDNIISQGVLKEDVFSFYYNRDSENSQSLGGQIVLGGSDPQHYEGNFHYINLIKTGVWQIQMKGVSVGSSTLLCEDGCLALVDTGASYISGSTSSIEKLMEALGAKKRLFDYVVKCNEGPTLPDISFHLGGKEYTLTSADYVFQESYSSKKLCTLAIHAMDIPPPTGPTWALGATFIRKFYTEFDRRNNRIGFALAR
Put plainly: inhibitory action on the human plasma renin activity. Format: biochemical. The conditions noted are these: pH=6, method of European patent application No. 104,964, read-out: IC50 (dose of compound under study which causes 50% inhibition of the human plasma renin activity). The source says: The peptide so obtained was studied for determining its inhibitory action on the human plasma renin activity using the method described in European patent application No. 104,964.

A word on the pIC50: it is the negative decadic logarithm of the IC50, by convention in mol/L.

On to “BOC-Phe-Nle-APHBA-Ala-Sta-OCH3 [SR 44205]”, for which the pIC50 was 6.00.
